Tests used:
[1] = system: Prunus dulcis; assay: Inhibition of almond beta-glucosidase at 0.6 ug/mL by colorimetric assay
[2] = target: T1, Alpha-galactosidase (Aspergillus niger) (UniProt Q9Y865); assay: Inhibition of Aspergillus niger alpha-galactosidase at 1.2 ug/mL by colorimetric assay
T1 sequence (whole entry): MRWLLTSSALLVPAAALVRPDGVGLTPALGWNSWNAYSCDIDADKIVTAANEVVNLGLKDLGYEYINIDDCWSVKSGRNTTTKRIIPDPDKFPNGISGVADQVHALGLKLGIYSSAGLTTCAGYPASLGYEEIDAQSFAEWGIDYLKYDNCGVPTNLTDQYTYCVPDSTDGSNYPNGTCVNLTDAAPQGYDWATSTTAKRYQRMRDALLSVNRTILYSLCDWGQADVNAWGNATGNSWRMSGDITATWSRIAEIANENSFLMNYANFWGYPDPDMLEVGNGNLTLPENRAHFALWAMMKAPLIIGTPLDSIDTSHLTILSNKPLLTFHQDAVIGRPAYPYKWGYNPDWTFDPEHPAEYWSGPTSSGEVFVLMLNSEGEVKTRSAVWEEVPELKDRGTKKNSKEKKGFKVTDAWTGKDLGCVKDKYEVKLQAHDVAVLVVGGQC

[3] = system: Canavalia ensiformis; assay: Inhibition of jack bean alpha-mannosidase at 25 to 30 ng/mL by colorimetric assay

Structure (SMILES)	inhibition [1]	inhibition [2]	inhibition [3]
O[C@@H]1[C@@H](O)[C@H](O)[C@]2(O)CC[C@H]1N2	50%	50%	
O[C@H]1[C@H]2[C@H](O)CCCN2C[C@H]1O			50%

From ChEMBL document CHEMBL1159258, “Identification of the glycosidase inhibitors swainsonine and calystegine B2 in Weir vine (Ipomoea sp. Q6 [aff. calobra]) and correlation with toxicity” (J Nat Prod, 1995)
